# Values quoted from earlier work in US20110275591A1, “COCKTAIL FOR MODULATION OF ALZHEIMER'S DISEASE” (Concourse Health Sciences LLC, priority 2004, published 2011).
# Columns and labels:
# SAMP8 mouse = details: for cognition in T-maze footshock avoidance paradigm and lever press appetitive task: chronic administration
# [1] = tested on: primary neurons of rat cerebral cortex; details: MTT and propidium iodide assays
# [2] = tested on: children with autistic spectrum disorders; details: 8-week study; all p<0.05
# [3] = tested on: patients with probable AD; details: after 3 and 6 months of treatment; significant differences only for a subset of cognitive tasks
# [4] = tested on: Alzheimer transgenic mice; details: dietary curcumin
# [5] = tested on: cultured hippocampal neurons
# [6] = co-treatment during 48-hour Aβ exposure, vs controls with no EGCG
molecule,measurement,setting,value
"O=C(O)CCCCC1CCSS1 (stereo not drawn) [ALA, Alpha lipoic acid]","indexes of oxidative stress (protein carbonyls, TBARS, W/S ratio of MAL-6)",SAMP8 mouse; 12-month-old SAMP8 mice,reversed all three indexes of oxidative stress
same,cognition in T-maze footshock avoidance paradigm and lever press appetitive task,SAMP8 mouse; 12-month-old SAMP8 mice,improved cognition
same,protection against cytotoxicity induced by Aβ peptide,[1]; Aβ peptide 30 microM,protected cortical neurons against cytotoxicity
same,protection against cytotoxicity induced by H2O2,[1]; H2O2 100 microM,protected cortical neurons against cytotoxicity
"NCCC(=O)N[C@@H](Cc1cnc[nH]1)C(=O)O [L-carnosine, b-alanyl-L-histidine]",Gilliam Autism Rating Scale and Receptive One-Word Picture Vocabulary test,[2],statistically significant improvements
"CC(=O)N[C@@H](CS)C(=O)O [NAC, N-Acetylcysteine, reference compound]",cognition in T-maze footshock avoidance paradigm and lever press appetitive task,SAMP8 mouse; 12-month-old SAMP8 mice,improved cognition
same,blood-brain barrier passage,SAMP8 mouse; SAMP8 mice,crossed the blood-brain barrier and accumulated in the brain
same,efficacy outcome measures (cognitive tasks),[3],beneficial results on nearly every outcome measure
"COc1cc(/C=C/C(=O)CC(=O)/C=C/c2ccc(O)c(OC)c2)ccc1O [curcumin, Curcumin]",lipid peroxidation products (indicators of oxidative stress),diabetic rats; curcumin fed rats,significant reduction
same,accumulation of advanced glycation endproducts,"diabetic rats; dietary curcumin 200 mg/kg body weight, vs control diabetic rats without curcumin",prevents the accumulation
same,levels of interleukin-1 beta,[4],decreased levels
same,levels of oxidized proteins,[4],decreased levels
same,microgliosis,[4],suppression
Epigallocatechin-3-gallate [EGCG],cell survival,"[5]; Aβ-exposed neurons, vs controls",increased survival
same,levels of caspase C,[5]; [6],decreased
same,levels of malondiadehyde,[5]; [6],decreased
